# Results: patent US10654838B2, “Aminopyridine compounds useful as inhibitors of protein prenylation” (INSTITUT NATIONAL DE LA SANTE ET DE LA RECHERCHE MEDICALE …, priority 2014, dated 2020)
# Tests used:
# HGPS MSCs [1] = test: ATP measurement (CellTiter Glo); assay type: cell-based, human; settings: 48 h
# Procedure: HGPS and control MSC were seeded in a 96 well plates (3917, Corning) (5000 cells/well) and treated with the different drugs. After 48 hours of treatment in unique dose, ATP content was measured using CellTiter Glo® (Promega) accordingly to the manufacturer recommendations. Luminescence was measured with an Analyst GT multimode plate reader (Molecular devices). In parallel, Hoechst 33342 stained nuclei were counted in each well thanks to an automated microscope. The results exploited are given in the ratio between ATP measurement and the number of nuclei counted.
# [2] = test system: lamin A and progerin mRNA expression; test: Quantitative PCR of lamin A and progerin mRNA; assay type: cell-based, human; settings: HGPS MSCs, 48 h, normalized on DMSO 0.1%
# Procedure: Total RNA was isolated using RNeasy Mini extraction kit (Qiagen, Courtaboeuf, France) according to the manufacturer's protocol. An on-col DNase I digestion was performed to avoid genomic DNA amplification. RNA level and quality were checked using the Nanodrop technology. A total of 500 ng of RNA was used for reverse transcription using the Superscript III reverse transcription kit (Invitrogen). Q-PCR analysis was performed using a ABI 7900 system (Applied biosystem) and TaqMan gene expression Master Mix (Roche) following the manufacturer's instructions. Quantification of gene expression was based on the DeltaCt Method and normalized on 18S expression (Assay HS_99999901_S1). PCR primers were previously described by S. Rodriguez and colleagues (Rodriguez S et al., 2009, Eur J Hum Genet, VOL 17(7): 928-37). Primer sequences were lamin A (exons 11/12), 5′-[…]-3′ (SEQ N^o 1) and 5′-AGTTCTGGGGGCTCTGGGT-3′ (SEQ N^o 2); lamin C (exons 9/10), 5′-[…]-3′ (SEQ N^o 3) and 5′-CGGCGGCTACCACTCAC-3′ (SEQ ID N^o 4) and Progerin
# (exons 11/12), 5′-ACTGCAGCAGCTCGGGG-3′ (SEQ N^o 5) and 5′-TCTGGGGGCTCTGGGC-3′ (SEQ ID N^o 6).
# Taqman MGB probe sequences were lamin A (exon 11), 5′-ACTCGCAGCTACCG-3′ (SEQ N^o 7); lamin C (exon10), 5′-ATGCGCAAGCTGGTG-3′ (SEQ ID N^o 8) and Progerin (exon 11), 5′-CGCTGAGTACAACCT-3′ (SEQ ID N^o 9). […]
# prelamin A = test: Western immunoblotting of prelamin A; assay type: cell-based, human; settings: HGPS MSCs, optimal concentration
# Procedure: Whole-cell lysates of MSC were collected, separated by SDS-PAGE, and transferred onto PVPF membrane by liquid transfer method. Blots were blocked in 10% skim milk (Bio-Rad) in tween 0.1% tris-buffered saline (TTBS) 1× one hour at room temperature. The primary antibodies used were a mouse anti-lamins A/C 1:200 (Millipore, JOL2), a rabbit anti-prelamin A 1/100 (ANTOO45, Diatheva) and a β-actin 1/200000 (Sigma). Membranes were incubated during the night at 4° C. Antigen-antibody binding was detected using horseradish peroxidaseconjugated species-specific secondary antibodies (GE-Healthcare, Little Chalfont, UK) followed by enhanced chemiluminescence Western blotting detection reagents (Perkin-Elmer, Waltham, USA).
# HGPS MSCs [3] = test: Nuclear shape abnormalities (lamin A/C immunostaining); assay type: cell-based, human; settings: 48 h, lamin A/C staining
# Procedure: (§1) In the 4-steps protocol, cells were fixed in 4% paraformaldehyde (15 minutes, room temperature) before permeabilization and blocking in PBS supplemented with 0.1% triton X-100 and 1% BSA (Sigma-Aldrich, St. Louis, USA). Primary antibodies were incubated one hour at room temperature in blocking buffer. Antibodies included mouse anti-lamins A/C (clone JOL2, Millipore, Billerica, USA), rabbit anti-prelamin A (ANTOO45, Diatheva) and anti-Ki67 (clone Ki-S5, MAB4190, Millipore, Billerica, USA). Cells were stained with the species-specific fluorophore-conjugated secondary antibody (Invitrogen) (one hour, room temperature) and nuclei were visualized with Hoechst 33342.
# HDJ2 = test: Western blot analysis of HDJ2 farnesylation; assay type: cell-based, human
# HGPS MSCs [4] = test: Cell proliferation (Ki-67 immunostaining); assay type: cell-based, human; settings: 48 h
# Procedure: as §1
# HGPS MSCs [5] = test: Osteogenic differentiation (alkaline phosphatase activity); assay type: cell-based, human; settings: 7 days of osteogenic differentiation
# Procedure: MSC were seeded at 600 cells per well in 384 well plate in MSC culture medium and treated as previously described. After 72 hours, MSC medium was replaced by STEMPRO osteogenic induction medium (Invitrogen) in presence or not of the different drugs. After 7 days of treatment, cells were fixed with ethanol 95% and stained by adding either a colorimetric substrate of the alkaline phosphatase, the 5-Bromo-4-chloro-3-indolyl phosphate/Nitro blue tetrazolium (NBT) (Sigma-Aldrich) or a chromogenic substrate of this enzyme (absorbance at 405 nm), the p-Nitrophenyl Phosphate (pNPP) (Pierce Biotechnology).
# HMGCR = molecular target: T1, HMGCR (Homo sapiens, UniProt P04035); test: HMGCR colorimetric activity assay; assay type: biochemical
# T1 construct: oxidation of NADPH by the catalytic subunit of HMGCR in the presence of the substrate HMG CoA; purchased Sigma-Aldrich
# T1 sequence (P04035 340-888 limits assumed): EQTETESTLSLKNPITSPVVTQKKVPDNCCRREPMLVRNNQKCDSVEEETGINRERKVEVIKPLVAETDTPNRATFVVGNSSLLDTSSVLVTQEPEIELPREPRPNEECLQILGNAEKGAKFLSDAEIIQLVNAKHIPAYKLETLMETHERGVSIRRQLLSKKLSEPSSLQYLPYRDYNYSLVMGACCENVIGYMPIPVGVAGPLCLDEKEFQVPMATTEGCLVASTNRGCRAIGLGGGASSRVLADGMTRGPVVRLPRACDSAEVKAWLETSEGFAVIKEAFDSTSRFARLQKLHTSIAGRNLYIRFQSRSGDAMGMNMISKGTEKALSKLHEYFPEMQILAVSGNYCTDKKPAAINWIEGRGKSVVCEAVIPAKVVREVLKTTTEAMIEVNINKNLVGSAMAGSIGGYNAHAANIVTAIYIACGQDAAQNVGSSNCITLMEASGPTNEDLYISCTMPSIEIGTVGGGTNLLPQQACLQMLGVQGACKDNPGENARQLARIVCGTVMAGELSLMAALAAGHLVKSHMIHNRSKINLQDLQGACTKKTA
# Procedure: HMGCR activity was measured using GCoA Reductase Assay Kit (Sigma-Aldrich) according to the manufacturer's protocol. The assay is based on the spectrophotometric measurement of the decrease in absorbance at 340 nm, which represents the oxidation of NADPH by the catalytic subunit of HMGCR in the presence of the substrate HMG CoA.
# FPPS [6] = molecular target: T2, FPPS (Homo sapiens, UniProt P14324); test: FPPS activity assay; assay type: biochemical; set-up: endogenous in cells; host or cells: HGPS MSCs (cell lysate); settings: concentration inducing 50% of the maximum inhibiting effect of the compound
# T2 sequence (P14324 1-419): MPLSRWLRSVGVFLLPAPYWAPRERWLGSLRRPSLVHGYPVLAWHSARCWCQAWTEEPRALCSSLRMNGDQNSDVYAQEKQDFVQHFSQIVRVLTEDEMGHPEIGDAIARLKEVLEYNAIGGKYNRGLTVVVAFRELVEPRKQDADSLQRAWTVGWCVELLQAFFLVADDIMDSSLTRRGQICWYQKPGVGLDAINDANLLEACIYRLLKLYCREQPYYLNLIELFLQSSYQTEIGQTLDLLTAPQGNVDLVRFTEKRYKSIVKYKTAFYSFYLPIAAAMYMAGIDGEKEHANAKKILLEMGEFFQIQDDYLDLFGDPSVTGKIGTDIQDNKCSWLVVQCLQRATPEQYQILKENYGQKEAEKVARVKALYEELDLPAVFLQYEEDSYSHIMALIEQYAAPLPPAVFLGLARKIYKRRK
# Procedure: (§2) Cell pellet of HGPS MSCs were resuspended in 25 mM Tris-HCl pH 7.4, 1 mM DTT, 1 mM MgCl2, 1 EDTA, 1 mM PMSF and centrifuged at 10,000×g for 10 min at 4° C. Protein content was determined using Lowry's method. Aliquots of cell lysate containing 100 μg of total proteins were incubated with tested substances at 37° C. for 30 min.
# FPPS assay was carried out with some modifications of the procedure of Krisans et al. (Krisans et al., 1994, The Journal of biological chemistry VOL. 269: 14165-14169) and described by Gupta et al. (Gupta et al., 1999, Eur J Med Chem, VOL. 43: 2751-2767). Briefly, FPPS was assayed in 150 μL containing 25 mmol/L Hepes, pH=7, 2 mmol/L MgCl2, 1 mmol/L dithiothreitol, 5 mmol/L KF, 1% A noctyl-β-glucopyranoside, 3.3 μmol/L [4-14C] IPP (18 Ci/mmol), 3 μmol/L unlabeled IPP and 20 μmol/L geranyl diphosphate. Reactions were started by adding 40 μL of treated or untreated cell lysate and incubated for 45 min at 37° C. Reactions were stopped by the addition of 150 μL 2.5 mol/L HCl in 80% ethanol containing 100 μg/mL farnesol as a carrier. The samples were hydrolyzed for 30 min at 37° C. to convert the FPP to farnesol and neutralized by the addition of 150 μL of 10% NaOH. The reaction product (farnesol) was extracted into 1 mL of N-hexane and an aliquot (200 μL) of the organic phase was used for radioactivity counting. Parallel samples were assayed to evaluate the total and the nonspecific radioactivity. In all experiments, enzyme assays were carried out in triplicate.
# HGPS MSCs [7] = test: Live cell imaging (cell density); assay type: cell-based, human; settings: 7 days
# Procedure: HGPS MSCs were seeded at 2500 cells per well in 96-well plates and cultivated during 7 days in presence of the drugs. Cell density was monitored using an IncuCyte ZOOM microscope (Essen Bioscience). Each value corresponds to the mean of cell densities of four pictures taken in three independent wells.
# FPPS [8] = molecular target: T2, FPPS; test: Surface plasmon resonance on immobilized FPPS; assay type: binding
# Procedure: Surface plasmon resonance (SPR) was measured using a BIAcore 3000 instrument at 25° C. FPPS (2800 RU) was immobilized on flow cells of a CM5-chip. The running buffer was HBSEP pH 7.4 (20 mM Hepes, 150 mM NaCl, and 0.005% P20). Regeneration was performed with 10 mM glycine, pH 3.0. […] Data were evaluated using Scrubber2 (Biologic software) and BIAeval software (BIAcore).
# FT = molecular target: T3, FT (Homo sapiens, UniProt P49354+P49356); test: FT activity assay (Farnesyltransferase [3H] SPA); assay type: biochemical; settings: concentration inducing 50% of the maximum inhibiting effect of the compound
# T3 construct: Reactions were started by adding 40 μL of treated or untreated cell lysate; endogenous in cells; host or cells: HGPS MSCs (cell lysate)
# Procedure: as §2
# FT activity was determined by Famesyltransferase [3H] SPA enzyme assay (Amersham Life Science, Buckinghamshire, England). Briefly, FT activity was assayed in 20 μl of assay buffer containing 50 mmol/L Hepes, 30 mmol/L MgCl2, 20 mmol/L KCl and 5 mmol/L dithiothreitol, 20 μl of [3H]-FPP (12 pmol) and 20 μl of biotin lamin B. Reactions were started by adding 40 μL of treated or untreated cell lysate and incubated for 1 hour at 37° C. Reactions were stopped by the addition of 150 μL of stop reagent containing SPA bead and counted in a scintillation counter. FT activity was expressed as pmoles of incorporated [3H]-FPP into biotin lamin-B peptide per minute per milligram of total proteins (pmol/min/mg prot). Parallel samples were assayed to evaluate the total and the nonspecific radioactivity. In all experiments enzyme assays were carried out in triplicate.
ATP content (energetic metabolism) (HGPS MSCs [1]),IC50 (μM) HMGCR (HMGCR),IC50 (FPPS [6]) [µM],"direct interaction with FPPS (SPR), in words (FPPS [8])","Ka (1/M), association constant (FPPS [8]; SPR, BIAcore 3000, 25° C.) [M⁻¹]","Kd (FPPS [8]; SPR, BIAcore 3000, 25° C., read-out: Kd (M), equilibrium dissociation constant) [M]",IC50 (FT) [µM],Compound,lamin A and progerin mRNA expression [2],prelamin A level (Western blot) (prelamin A),rescue of nuclear shape abnormalities (HGPS MSCs [3]),unfarnesylated form of HDJ2 (HDJ2),number of Ki-67 positive cells (HGPS MSCs [4]),rescue of premature osteogenic differentiation (alkaline phosphatase activity) (HGPS MSCs [5]),cytostatic effect in long term live imaging cultures (HGPS MSCs [7])
increased ATP content,–,–,–,–,–,–,"Cc1cccc(N(C)c2cc(N3CCN(C(=O)Cc4c(-c5ccccc5)[nH]c5ccccc45)CC3)ncn2)c1 [Di-AP1, 1-{4-[6-(Methyl-m-tolyl-amino)-pyrimidin-4-yl]-piperazin-1-yl}-2-(2-phenyl-1H-indol-3-yl)-ethanone]",increased,increased,not efficient,increase of the unfarnesylated form of the protein,up to 65%,not significantly different to those observed following FTI treatment,–
–,No inhibition,1.82,confirmed the direct interactions,5040,0.0002,9.32,"N#CC(c1ccncc1)c1cc(N2CCN(C(=O)c3cccs3)CC2)ncn1 (centres unmarked) [Mono-AP2, Pyridin-4-yl-{6-[4-(thiophene-2-carbonyl)-piperazin-1-yl]-pyrimidin-4-yl}-acetonitrile]",–,increased,restoring HGPS MSCs nuclear shape defects at levels not significantly different from the FTI tipifarnib,increase of the unfarnesylated form of the protein,–,–,less cytostatic than the FTI tipifarnib
